As usually defined, the IC50 is the concentration that inhibits the measured activity by half. A high value points to weaker potency. The inhibition is the change of the read-out against control, counted positive when it falls.

The text below walks through data of PMC12346557, “Design, Synthesis, and Anticancer Evaluation of New Small-Molecule EGFR Inhibitors Targeting NSCLC and Breast Cancer” (International Journal of Molecular Sciences, 2025).

Assay [1] relates to Jurkat cells. The assay is described as follows: MTT cytotoxicity assay, Jurkat cells. The assay is classed as cell-based, human. Particulars: for IC50: Homo sapiens, Jurkat, MTT; for SI (Selectivity Index): IC50 for PBMC/IC50 for Jurkat cell line. As for the experimental part: A549 and MCF-7 human cancer cell lines were cultured in Dulbecco’s Modified Eagle’s Medium (DMEM) (Wako Pure Chemical Industries, Osaka, Japan) supplemented with 10% fetal bovine serum (FBS) (Equitech-Bio, Kerrville, TX, USA). […] All media were supplemented with 89 μg/mL of streptomycin (Meiji Seika Pharma, Tokyo, Japan). […] Cancer cells and PBMCs were seeded into 24-well and 96-well microtiter tissue culture plates (Iwaki, Asahi Glass Co., Chiba, Japan) at densities of 4 × 10^4 cells/mL and 5 × 10^5 cells/mL, respectively, and incubated for 72 h prior to drug treatment. The optimal seeding density for cytotoxicity assays was determined through preliminary testing. […] The cellular reduction MTT (Dojindo Molecular Technologies, Kumamoto, Japan) was assessed following established protocols from the literature, with slight modifications.
(Formazan colour is commonly taken as a measure of viable cells.)

The test system of assay [2] is A549 cells. As to the kind of experiment: MTT cytotoxicity assay, A549 cells. Format: cell-based, human. Particulars: triplicate; for reduction of A549 cell viability: 100 µM, 72 h; for IC50: Homo sapiens, A549, 72 h culture, 1-100 µM.
Assay [3] concerns PBMCs. The assay is described as follows: MTT cytotoxicity assay, PBMCs (healthy). The assay is classed as cell-based. The following applies: PBMC. As for the experimental part:
A549 and MCF-7 human cancer cell lines were cultured in Dulbecco’s Modified Eagle’s Medium (DMEM) (Wako Pure Chemical Industries, Osaka, Japan) supplemented with 10% fetal bovine serum (FBS) (Equitech-Bio, Kerrville, TX, USA). Jurkat cells, derived from human leukemia, were maintained in RPMI 1640 medium (Wako Pure Chemical Industries) with 10% FBS. PBMCs (Precision Bioservices, Frederick, MD, USA) were cultured in RPMI 1640 medium supplemented with 10% human AB serum (HS) (Gemini, Woodland, CA, USA). All media were supplemented with 89 μg/mL of streptomycin (Meiji Seika Pharma, Tokyo, Japan). Cells were incubated at 37 °C in a humidified atmosphere containing 95% air and 5% CO2. Cancer cells and PBMCs were seeded into 24-well and 96-well microtiter tissue culture plates (Iwaki, Asahi Glass Co., Chiba, Japan) at densities of 4 × 10^4 cells/mL and 5 × 10^5 cells/mL, respectively, and incubated for 72 h prior to drug treatment. The optimal seeding density for cytotoxicity assays was determined through preliminary testing. […] The cellular reduction MTT (Dojindo Molecular Technologies, Kumamoto, Japan) was assessed following established protocols from the literature, with slight modifications.

Assay [4] deals with MCF-7 cells. The assay is described as follows: Annexin V/ethidium homodimer-III apoptosis staining, MCF-7 cells. Particulars: IC50 concentration, 24 h, compared to control. Format: cell-based, human. On the procedure: (§1) In this method, green staining indicates apoptotic cells, red indicates necrotic cells, and yellow represents cells in the late stages of apoptosis. This staining was analyzed using a fluorescence microscope. […] Furthermore, the apoptotic effect of B-2 on MCF-7 cells was assessed, showing that 4.3% of the cells underwent apoptosis after treatment, a result that was statistically significant (Figure 5b).
(§2) A549 and MCF-7 cells were treated with B-1 and B-2 at its IC50 concentration for 24 h. Following treatment, the cells were detached using 0.05% trypsin, washed twice with 1× binding buffer, and incubated in the dark at r.t. for 20 min with a staining solution containing 50 μL of 1× binding buffer, 4 μL of FITC-Annexin V solution, 4 μL of ethidium homodimer III solution, and 4 μL of Hoechst 33342 solution. After staining, the cells were washed again with 1× binding buffer, fixed in 2% paraformaldehyde, rinsed with PBS, and analyzed using the Biorevo Fluorescence BZ-9000 all-in-one fluorescence microscope (Keyence, Osaka, Japan).

Assay [5] has as its target T1, recombinant human EGFR (amino acids 695 to C-terminus) (Homo sapiens, UniProt P00533).
T1 construct: recombinant human EGFR (amino acids 695 to C-terminus); purchased Promega Corporation V3831
The assay is described as follows: EGFR Kinase Enzyme System / ADP-Glo kinase assay. Format: biochemical. As for the experimental part:
Overexpression or mutation of the EGFR gene markedly enhances cell growth and proliferation, particularly in NSCLC [41] and breast cancer, making EGFR a well-established and effective therapeutic target for these diseases. Due to their potent activity against NSCLC and breast cancer, B-1 and B-2 were further examined for their potential to inhibit EGFR.
The kinase profiling assay (EGFR Kinase Enzyme System, V3831) was conducted according to the manufacturer’s protocol (Promega Corporation, Madison, WI, USA), with minor modifications. In brief, 95 μL of 2.5× kinase buffer and 15 μL of 100 μM ATP solution were used to prepare dilutions of recombinant human EGFR (amino acids 695 to C-terminus) and its substrate (4:1 Glu:Tyr mixture). Reactions were set up in a 384-well plate, each containing 2 μL of kinase working stock, 2 μL of ATP/substrate working stock, and 1 μL of test compound solution or 5% DMSO as a control. After a 2 h incubation at r.t., kinase activity was measured using the ADP-Glo Kinase Assay (Promega), following the manufacturer’s instructions. Specifically, 5 μL of ADP-Glo Reagent was added to each well and incubated for 40 min, followed by 10 μL of Kinase Detection Reagent and a further 30 min incubation at r.t. Luminescence was recorded using the Infinite M1000 microplate reader (Tecan, Grödig, Austria) with an integration time of 0.5 to 1 s to assess the compounds’ kinase inhibitory effects in a dose-dependent manner.
(ADP-Glo first removes unused ATP, then detects ADP through luciferase.)

For assay [6], the system named is MCF-7 cells. The assay is described as follows: MTT cytotoxicity assay, MCF-7 cells. Format: cell-based. Particulars: Homo sapiens, triplicate; for inhibition at 100 µM: MCF7, 100 µM, 72 h; for IC50: MCF7, 72 h culture, 1-100 µM.
In assay [7] the test system is A549 cells. As to the kind of experiment: Annexin V/ethidium homodimer-III apoptosis staining, A549 cells. Format: cell-based, human. Particulars: IC50 concentration, 24 h, compared to control. As for the experimental part: as §1, §2

Each structure is given as a SMILES string.

T1 sequence (P00533 695-1210 limits assumed): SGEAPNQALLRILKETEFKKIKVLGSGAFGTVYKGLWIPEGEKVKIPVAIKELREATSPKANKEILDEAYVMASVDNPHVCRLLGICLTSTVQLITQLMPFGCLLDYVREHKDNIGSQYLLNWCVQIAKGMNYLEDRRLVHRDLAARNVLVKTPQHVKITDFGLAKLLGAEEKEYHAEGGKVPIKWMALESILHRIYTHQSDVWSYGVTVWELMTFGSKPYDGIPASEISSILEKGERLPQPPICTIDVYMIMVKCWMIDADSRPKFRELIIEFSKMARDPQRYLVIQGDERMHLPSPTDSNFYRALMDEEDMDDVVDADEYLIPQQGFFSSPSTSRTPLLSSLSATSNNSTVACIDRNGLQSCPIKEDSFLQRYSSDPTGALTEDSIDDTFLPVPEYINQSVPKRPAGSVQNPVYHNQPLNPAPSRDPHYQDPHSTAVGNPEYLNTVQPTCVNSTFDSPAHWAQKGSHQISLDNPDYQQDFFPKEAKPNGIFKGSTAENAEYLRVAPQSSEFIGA

For the compound `Cc1ccc(C(=O)/C=C/c2cnc(-c3ccc(Cl)cc3)nc2)cc1` [Compound B-1, (E)-3-(2-(4-Chlorophenyl)pyrimidin-5-yl)-1-(4-methylphenyl)-2-propen-1-one], the IC50 is 2.12 ± 0.48 µM in assay [1], greater than 100 µM in assay [2], 121 ± 14.8 µM in assay [3] and 6.1 ± 1.26 µM in assay [6]. Also, the “SI (Selectivity Index)” value in assay [1] was 57.08. Besides, the “reduction of A549 cell viability” value in assay [2] is given as 38%. Moreover, the “apoptosis in MCF-7 cells” value in assay [4] worked out at 11.6%. Besides, the EGFR inhibition result in assay [5] (1 μM) and in assay [5] (10 μM) was “no inhibitory effect” each time. In addition, the inhibition at 100 µM in assay [6] is 73%.

On to `COc1ccc(C(=O)/C=C/c2cnc(-c3ccc(Cl)cc3)nc2)cc1` [Compound B-2, (E)-3-(2-(4-Chlorophenyl)pyrimidin-5-yl)-1-(4-methoxyphenyl)-2-propen-1-one], for which, in assay [1], half-maximal inhibition (IC50) was put at 2.96 ± 0.44 µM and the “SI (Selectivity Index)” value is reported as 23.20. Besides, in assay [2], the “reduction of A549 cell viability” value is 73% and half-maximal inhibition (IC50) required 2.14 ± 0.83 µM. This compound gave an IC50 in assay [3] of 68.7 ± 9.82 µM. Also, the “apoptosis in MCF-7 cells” value in assay [4] was found to be 4.3%. Besides, in assay [7], the “apoptosis in A549 cells” value came to 16.8%. The inhibition at 1 µM in assay [5] (1 μM) amounted to 26%. Moreover, in assay [5] (10 μM), the inhibition at 10 µM was determined as 66%. Further, in assay [6], 100 µM produced 52% inhibition and the half-inhibitory concentration (IC50) was found to be 8.91 ± 1.38 µM.
